In patent publication US20230089557A1, “METHODS OF TREATING DLBCL USING BTK INHIBITORS AND COMBINATIONS THEREOF” (BEIGENE SWITZERLAND GMBH, priority 2020, published 2023):

Columns and labels:
Non-GCB DLBCL PDX models [1] = assay: Compound 1 efficacy (TGI) in non-GCB DLBCL PDX models by CD79B / CD79B ITAM mutation; type: in vivo, mice; conditions: p.o. 7.5 mg/kg BID
Source text: (§1) DLBCL patient-derived xenografted (PDX) models were established in immunodeficient NCG (NOD-Prkdcem26Cd52Il2rgem26Cd22/NjuCrl) mice. These models were classified into GCB and non-GCB subgroups based on immunohistochemistry (IHC) staining using Hans algorithm. Non-GCB DLBCL PDX models were classified into CD79B mutant versus CD79B wildtype groups; or CD79B ITAM domain mutant (amino acid 193-210) versus CD79B ITAM domain wildtype groups. For efficacy studies, tumor tissues were inoculated subcutaneously into NCG mice. When tumors reached 100˜200 mm^3, mice were randomized into each group with 7˜10 mice/group based on tumor volume. Compound 1 was formulated with 0.5% methyl cellulose as vehicle and treatment was started on the day of randomized grouping. Compound 1 was administrated p.o., 7.5 mg/(kg body weight), BID. Tumor volumes were measured twice weekly in two dimensions using a caliper, and the volume were expressed in mm^3 using the formula:
(§2) V=0.5(a×b^2) where a and b are the long and short diameters of the tumor, respectively.
(§3) Tumor growth inhibition (TGI) was calculated using the following formula:
(§4) % TGI=100×[1−(treatmentvt−treatmentv0)/(vehiclevt−Vehiclev0)]
(§5) Treatmentvt=tumor volume of treatment group at time t.
treatmentv0=tumor volume of treatment group at time of treatment started.
Vehiclevt=tumor volume of vehicle group at time t.
Vehiclev0=tumor volume of vehicle group at time of treatment started.
P value was calculated using two tails t test.

Non-GCB DLBCL PDX models [2] = assay: Compound 1 efficacy (TGI) in non-GCB DLBCL PDX models by EBV status; type: in vivo, mice; conditions: p.o. 7.5 mg/kg BID
Source text: as §1, with “Epstein-Barr virus (EBV) negative and EBV positive subgroups.” for “CD79B mutant versus CD79B wildtype groups; or CD79B ITAM domain mutant (amino acid 193-210) versus CD79B ITAM domain wildtype groups.”
as §2, §3, §4, §5
treatmentv0=tumor volume of treatment group at time of treatment started. […]
Average TGI of each model was used and represented as a dot point in the figure. P value was calculated using two tails t test to compare difference between groups.

In the case of `C=CC(=O)N1CCC([C@@H]2CCNc3c(C(N)=O)c(-c4ccc(Oc5ccccc5)cc4)nn32)CC1` [Compound 1, (S)-7-(1-acryloylpiperidin-4-yl)-2-(4-phenoxyphenyl)-4,5,6,7-tetra-hydropyrazolo[1,5-a]pyrimidine-3-carboxamide], the “TGI (mean±SD)” value (Non-GCB DLBCL PDX models [1]; CD79B ITAM domain mutation non-GCB DLBCL models) is reported as 96.00±28.83%, the “TGI (mean±SD)” value (Non-GCB DLBCL PDX models [1]; CD79B mutation non-GCB DLBCL models) is reported as 87.5±33.14% and the “TGI (mean±SD)” value (Non-GCB DLBCL PDX models [1]; CD79B wildtype non-GCB DLBCL models) is reported as 49.44±42.36%. The “TGI (mean±SD)” value (Non-GCB DLBCL PDX models [2]; EBV negative non-GCB DLBCL models) was 78.00±43.41% and the “TGI (mean±SD)” value (Non-GCB DLBCL PDX models [2]; EBV positive non-GCB DLBCL models) was 33.25±22.41%.
